Entries after “also recorded” stand apart in the source; their conditions may differ.
Each compound was assayed against T1, rEAAT3 (Rattus norvegicus, UniProt P51907) (assay: Electrophysiology: SLC1 specificity, anion current in transfected HEK293 cells). Settings: 0 mV, 10 mM glutamate and 130 mM NaSCN internal, No current = no outward current up to highest concentration tested (§ 20-50, || 100-400, # 1500-2500 µM).
T1 construct: expressed in transfected cells; host or cells: HEK293 (ATCC CRL-11268), transient transfection
T1 sequence (P51907 1-523): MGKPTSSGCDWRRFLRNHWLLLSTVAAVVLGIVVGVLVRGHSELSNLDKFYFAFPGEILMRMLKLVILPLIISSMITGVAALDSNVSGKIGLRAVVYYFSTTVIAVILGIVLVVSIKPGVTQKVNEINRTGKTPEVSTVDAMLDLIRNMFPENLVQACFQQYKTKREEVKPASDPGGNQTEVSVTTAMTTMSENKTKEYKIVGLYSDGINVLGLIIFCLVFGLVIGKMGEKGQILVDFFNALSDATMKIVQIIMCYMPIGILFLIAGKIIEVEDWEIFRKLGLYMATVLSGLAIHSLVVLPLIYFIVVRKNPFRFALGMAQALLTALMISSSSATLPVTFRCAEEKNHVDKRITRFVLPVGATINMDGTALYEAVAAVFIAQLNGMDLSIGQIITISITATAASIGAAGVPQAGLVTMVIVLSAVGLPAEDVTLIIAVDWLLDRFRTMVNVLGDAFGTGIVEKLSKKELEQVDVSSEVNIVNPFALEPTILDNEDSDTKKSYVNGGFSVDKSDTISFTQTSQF
Format: cell-based
Experimental: We also tested the specificity of Lc-BPE for ASCT2 over other SLC1 family members (ASCT1, EAAT1-3, and EAAT5).
Fig. S3. SLC-1 specificity of Lc-BPE. (A) Electrophysiological current responses to the application of 100 µM glutamate (red trace) or varying concentrations of Lc-BPE (black, blue and red traces) to rEAAT1-expressing cells HEK293 cells. (B-C) Dose response curves obtained from currents recorded a fter application of Lc-BPE extracellularly to cells transiently expressing hASCT2, rASCT2, hASCT1 (panel B) and rEAAT1, rEAAT2, rEAAT3 and hEAAT5 (panel C) respectively. For hASCT2, rASCT2 and hASCT1, intracellular pipette solution contained 10 mM alanine and 130 mM NaSCN. For rEAAT1, rEAAT2, rEAAT3 and hEAAT5, intracellular solution contained 10 mM glutamate and 130 mM NaSCN. Extracellular solution was the same for all the experiments (140 mM NaCl). The voltage was 0 mV. […]
Cell culture and transfection
Human embryonic kidney 293 (HEK293, ATCC CRL -11268) cells were cultured in DMEM media supplemented with 10% (v/v) fetal bovine serum (FBS), 2 mM glutamine, 1% penicillin streptomycin solution, 1 mM sodium pyruvate and non -essential amino acids. Cells were maintained at 370C in a fully humidified atmosphere containing 5% CO2. rASCT2, hASCT2, hASCT1, EAAT1, EAAT2, EAAT3, EAAT5 and YFP complementary DNAs were each used to transiently transfect HEK293 using POLYPLUS Jet-prime transfection reagent. Cells were analyzed using electrophysiological techniques 24-40 hours after transfection.
Electrophysiological techniques
Electrophysiological experiments were performed as described previously 1,2. Stock solutions of inhibitor was prepared in dimethyl sulfoxide (DMSO) up to 100 mM.
Dilutions to working concentrations were made using external buffer. The highest […]
cells. For rASCT2, hASCT2 and hASCT1, external buffer contained 140 mM NaCl, 2 mM MgCl2, 2 mM CaCl2, and 10 mM HEPES, pH 7.40 while internal pipette solution comprised of 130 mM NaSCN, 2 mM MgCl2, 10 mM EGTA, 10 mM HEPES and 10mM alanine, pH 7.40. For specificity experiments with EAAT1, EAAT2, EAAC1 and EAAT5, internal solution contained 10 mM glutamate instead of alanine. Compounds were applied to HEK293 cells expressing DNA of interest suspended from a current recording electrode in whole cell configuration44 through a rapid solution exchange device described previously45. Cells are immersed in external buffer bath used to dissolve the inhibitors. The open pipette resistance was between 3 and 6 MΩ. Series resistance was not compensated in these experiments due to relatively small currents. Current s traces were recorded using an Adams and List EPC7 amplifier and digitized using a Molecular Devices Digidata A/D converter.
Data analysis was performed as described previously 46. Linear and nonlinear curve fitting of the experimental data were analyzed using MicroCal Origin software. Linear plots were fitted using the general equation (y = a + bx) obtaining adjusted R 2 and Pearson’s r values. Nonlinear dose–response relationships were fitted with a Michaelis – Menten-like equation to obtain apparent Ki values in the absence of substrate. For competition studies, equation I = I1 + I2 [Inh]/(Ki + [Inh]) was used for fitting, where I1 is the alanine induced current without the inhibitor, and I2 is the maximum current in the presence of saturating inhibitor concentration, [Inh]max 1,2. At least five experiments were performed for each compound. Unless stated otherwise, the error bars in all our graphs represent mean ± SD .
ASCT2 expression and purification
Human ASCT2 (hASCT2) was produced in Pichia pastoris X-33 strain (Invitrogen) in fermentor26 and purified using DDM and CHS (Anatrace) and 1 mM L-glutamine (Merck) to maintain protein stability 27. Membranes representing ~1.5 g cells were solubilized in buffer A (25 mM Tris-HCl, pH 7.4, 300 mM NaCl, 10% (vol/vol) glycerol, 1 mM L - glutamine, 1% DDM and 0.1% CHS) for 1 h at 4 °C; ultracentrifuged (30 min, 442,907 × […]

SMILES | Binding affinity Ki
O=C(O[C@@H]1CN[C@H](C(=O)O)C1)c1ccccc1-c1ccccc1 [ERA-3] | No current
O=C(O[C@@H]1CN[C@H](C(=O)O)C1)c1ccc(C(O)c2ccccc2)cc1 (stereo partly shown) [ERA-9] | No current; also recorded: No inhibitory activity was detected
N[C@@H](COC(=O)c1cccnc1)C(=O)O [ERA-28] | No current
O=C(O[C@@H]1CN[C@H](C(=O)O)C1)C(c1ccccc1)c1ccccc1 [ERA-29] | No current

Next, values leading:

Binding affinity Ki | SMILES
No current | O=C(Nc1ccc(C(=O)O[C@@H]2CN[C@H](C(=O)O)C2)cc1)c1ccc(C(F)(F)F)cc1 [ERA-11]
No current | O=C(O[C@@H]1CN[C@H](C(=O)O)C1)c1ccc(OCc2ccccc2)cc1 [ERA-31]
No current | O=C(O[C@H]1CN[C@H](C(=O)O)C1)c1ccc(C(=O)c2ccccc2)cc1 [ERA-35]

Same assay, conditions: 0 mV, 10 mM glutamate and 130 mM NaSCN internal, No current = no outward current up to highest concentration tested (§ 20-50, || 100-400, # 1500-2500 µM), read-out: Binding affinity Ki

SMILES | Ki
O=C(O[C@@H]1CN[C@H](C(=O)O)C1)c1ccc(-c2ccc(F)cc2)cc1 [ERA-4] | 0.69 ± 0.07 µM
N[C@@H](COC(=O)c1ccc(NC(=O)c2ccccc2)cc1)C(=O)O [ERA-21] | 12.3 ± 1.86 µM
N[C@@H](COC(=O)c1ccccc1)C(=O)O [ERA-25] | 656 ± 115 µM

The remaining lines, values ahead:

Ki | SMILES
1.25 ± 0.24 µM | O=C(O[C@@H]1CN[C@H](C(=O)O)C1)c1ccc(-c2ccc(C(F)(F)F)cc2)cc1 [ERA-5]
1.99 ± 0.36 µM | Cc1ccccc1-c1ccc(C(=O)O[C@@H]2CN[C@H](C(=O)O)C2)cc1 [ERA-6]
10.3 ± 2.15 µM | O=C(O[C@@H]1CN[C@H](C(=O)O)C1)c1ccc(Oc2ccccc2)cc1 [ERA-16]

— publication PMC8449414, “Rational design of ASCT2 inhibitors using an integrated experimental-computational approach” (Proceedings of the National Academy of Sciences of the …, 2021)
